Laboratory results taken from article PMC6100724, “Proteome‐wide analysis of phospho‐regulated PDZ domain interactions” (Molecular Systems Biology, 2018).

Tests used:
[1] = target: T1, Scribble PDZ1 (Homo sapiens, UniProt Q14160); assay: Phosphomimetic ProP-PD selection with NGS; assay type: binding; settings: bait Scribble PDZ1; mean of selections 1-3
T1 construct: human Scribble PDZ1 aa 719–829 in; made in house; host or cells: E. coli BL21 Gold (DE3)
Method: (§1) Phage selections were carried out for four rounds following a protocol by Huang and Sidhu (Huang & Sidhu, 2011) with minor modifications. Non‐specific binding phage was removed by pre‐selections against immobilized GST throughout the selection. The selections against the (pre‐)phosphorylated wild‐type library were performed in 50 mM HEPES (pH 7.4) and 150 mM NaCl (HBS) following the same procedure after pre‐phosphorylation of the library.
(§2) • Immobilize proteins (15 μg in 100 μl PBS) in a 96‐well MaxiSorp microtiter plate (NUNC) overnight at 4°C. • Start a 2YT culture of E. coli Omnimax supplemented with 100 μg/ml tetracycline to retain the F pilus epitope. • Block the wells with 200 μl 0.5% BSA in PBS for 2 h at 4°C. • Precipitate naïve phage library (10^11 cfu per selection) or amplified phage pool from the previous round of selection by adding one‐fifth the volume of PEG/NaCl. • Incubate on ice for 10 min, and pellet precipitated phage by centrifugation at 5,300 g for 15 min. Resuspend the phage pellet in 100 μl PBS per selection. • Add 100 μl of phage solution to the GST‐coated pre‐selection wells and incubate for 1 h. • Transfer the phage solution to the immobilized target proteins and allow it to bind for 2 h at 8°C. • Wash the plate four times with 200 μl cold wash buffer (PBS, 0.05% Tween‐20). • Elute bound phage by incubation with 100 μl log phase (0.6–0.8 OD600) E. coli Omnimax for 30 min at 37°C with shaking (200 RPM). • Add 10^12 cfu/ml M13K07 helper phage for hyperinfection of the bacteria and incubate as above for 45 min. • Transfer the bacterial culture to 10 ml 2YT supplemented with 50 μg/ml carbenicillin, 25 μg/ml kanamycin, and 300 μM IPTG and incubate overnight at 37°C while shaking. • Perform phage pool ELISA to monitor the progress of the selection as described previously (Huang & Sidhu, 2011).
(§3) The naïve library and the enriched phage pools of the third day of selection were amplified and barcoded by PCR and analyzed by NGS as described elsewhere (McLaughlin & Sidhu, 2013; Ivarsson et al, 2014). The reads were demultiplexed using the barcode sequences and filtered by discarding sequences with a Phred quality score under 30. Sequences were mapped to the original library using Bowtie (Langmead et al, 2009) with two mismatches between reads and library sequence. Nucleotide mutations leading to amino acid substitutions were subsequently removed. Cutoff values of NGS counts were assigned for each pool. PWMs were generated based on the remaining peptides (aligned on the C‐termini) using WebLogo (Crooks et al, 2004).
(§4) However, there was no significant correlation of the actual read counts (selection “strength”) and the initial representation in the library, reflecting the strong selection during phage display (wt+mimetic: P‐value: 0.49, ρ = −0.08, mimetic only: P‐value: 0.069, ρ = −0.2, wt only: P‐value: 0.12, ρ = 0.17). Consequently, the amount of reads for each binder after phage display is not a function of the amount of input reads in the naïve library and no modeling based on the input library frequencies to score the interactions is necessary. To allow for comparison between replicate selections, we used the fraction of NGS reads within a certain set, instead of the absolute number of NGS reads, as the absolute numbers differ between different NGS batches.

[2] = target: T2, DLG1 PDZ2 (Homo sapiens, UniProt Q12959); assay: Phosphomimetic ProP-PD selection with NGS; assay type: binding; settings: mean of selections 1-3, bait DLG1 PDZ2
T2 construct: human DLG1 PDZ2 aa 311–407 in a modified pRSET vector 40; made in house; host or cells: E. coli BL21 Gold (DE3)
Method: as §1, §2, §3, §4

[3] = test system: Scribble PDZ2; assay: Phosphomimetic ProP-PD selection with NGS; assay type: binding, human; settings: bait Scribble PDZ2
Method: as §1, §2, §3, §4

[4] = test system: Scribble PDZ3; assay: Phosphomimetic ProP-PD selection with NGS; assay type: binding, human; settings: bait Scribble PDZ3
Method: as §1, §2, §3, §4

[5] = test system: DLG1 PDZ1; assay: Phosphomimetic ProP-PD selection with NGS; assay type: binding, human; settings: mean of selections 1-3, bait DLG1 PDZ1; for Mean fraction #NGS counts mimetic peptide / total count selection: phosphomimetic peptide; for Mean fraction #NGS counts wt peptide / total counts selection: wild type peptide
Method: as §1, §2, §3, §4

[6] = target: T1, Scribble PDZ1; assay: Pre-phosphorylation ProP-PD: wild-type library treated with RPS6KA1 or not, selection with NGS; assay type: binding; settings: for Phosphorylated selection Mean fraction: Pre-phosphorylation with RPS6KA1; for Phosphorylated selection Mean fraction / Unphosphorylated selection Mean fraction: mean of the two selections, bait Scribble PDZ1; for Unphosphorylated selection Mean fraction: Without Kinase
Method: For pre‐phosphorylation of the wild‐type ProP‐PD library, we obtained activated RPS6KA1 (Thermo Fisher). The time and amount of kinase required to phosphorylate the ProP‐PD library were tested in a phosphorylation assay.
as §1, §2
• Precipitate the naive wild‐type phage library (as described above, 1.8 × 10^10 cfu phage per selection). • Resuspend the precipitated phage pellets in 100 μl Kinase buffer per selection and add ATP (100 μM final concentration) and RPS6KA1 (500 ng/ml) to the phage solution. In parallel, prepare a negative control where only ATP is added to the phage pool. • Incubate the phosphorylation reaction for 2 h at room temperature. Stop the reaction through PEG/NaCl precipitation (as described above). • Resuspend the phage pool in 100 μl HBS.
During the 4 days of pre‐phosphorylation ProP‐PD selections, the input phage library of each day of selection was subjected to phosphorylation prior to phage selection.
as §3

[7] = test system: DLG1 PDZ3; assay: Phosphomimetic ProP-PD selection with NGS; assay type: binding, human; settings: mean of selections 1-3; bait DLG1 PDZ3
Method: as §1, §2, §3, §4

[8] = mean of selections 1 and 2 (selection 3 empty)

T2 sequence (Q12959 311-407): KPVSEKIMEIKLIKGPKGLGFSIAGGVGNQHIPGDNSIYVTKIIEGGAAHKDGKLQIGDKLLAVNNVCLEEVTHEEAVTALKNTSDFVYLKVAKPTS
T1 sequence (Q14160 719-829): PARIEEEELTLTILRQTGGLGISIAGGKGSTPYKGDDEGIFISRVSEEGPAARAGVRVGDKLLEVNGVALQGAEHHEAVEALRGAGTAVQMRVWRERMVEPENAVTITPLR

RSRSIETDV
Mean fraction #NGS counts mimetic peptide / total count selection [1]: 0.0006725
Mean fraction #NGS counts mimetic peptide / total count selection [2]: 0.009109
Mean fraction #NGS counts mimetic peptide / total count selection [3, 8]: 0.06648
Mean fraction #NGS counts mimetic peptide / total count selection ([4]; mean over selections 1-3): 0.001306
Mean fraction #NGS counts mimetic peptide / total count selection [5]: 0.001793

RSRSISTDV [FAM163B]
Phosphorylated selection Mean fraction [6]: 0
Unphosphorylated selection Mean fraction [6]: 2.348e-5

SARLWETSI [ADAM22]
Phosphorylated selection Mean fraction [6]: 0.05157
Unphosphorylated selection Mean fraction [6]: 0.03077

SIDLWETAL [SLC15A5]
Phosphorylated selection Mean fraction [6]: 0.0004582
Unphosphorylated selection Mean fraction [6]: 1.656e-5

SRDRKEESI
Mean fraction #NGS counts mimetic peptide / total count selection [2]: 0
Mean fraction #NGS counts mimetic peptide / total count selection [7]: 5.904e-6
Mean fraction #NGS counts mimetic peptide / total count selection ([4]; mean over selections 1-3): 2.019e-6

SRDRKETSI
Mean fraction #NGS counts wt peptide / total counts selection [2]: 0.0004401
Mean fraction #NGS counts wt peptide / total counts selection [7]: 0.002721
Mean fraction #NGS counts wt peptide / total counts selection ([4]; mean over selections 1-3): 0.00255

SRDRKETSI [RALBP1]
Phosphorylated selection Mean fraction [6]: 0
Unphosphorylated selection Mean fraction [6]: 1.381e-5

TALKVMTMV [DACT2]
Phosphorylated selection Mean fraction [6]: 2.797e-5
Unphosphorylated selection Mean fraction [6]: 9.668e-6

TIKLKTSFF
Mean fraction #NGS counts wt peptide / total counts selection ([2]; wild type peptide): 4.36e-5
Mean fraction #NGS counts wt peptide / total counts selection [7]: 3.092e-5
Mean fraction #NGS counts wt peptide / total counts selection ([4]; mean over selections 1-3): 4.802e-5
Mean fraction #NGS counts wt peptide / total counts selection [5]: 0

TKGISITSI [GNRHR2]
Phosphorylated selection Mean fraction [6]: 3.213e-5
Unphosphorylated selection Mean fraction [6]: 3.175e-5

TMFLRETEL
Mean fraction #NGS counts mimetic peptide / total count selection [1]: 0.8115
Mean fraction #NGS counts mimetic peptide / total count selection [2]: 0.0007019
Mean fraction #NGS counts mimetic peptide / total count selection ([3]; mean over selections): 0.1922
Mean fraction #NGS counts mimetic peptide / total count selection ([4]; mean over selections 1-3): 0.4954
Mean fraction #NGS counts mimetic peptide / total count selection [5]: 0.002709

TMFLRETSL
Mean fraction #NGS counts wt peptide / total counts selection [1]: 0.01417
Mean fraction #NGS counts wt peptide / total counts selection [2]: 0.0002151
Mean fraction #NGS counts wt peptide / total counts selection ([3]; mean over selections): 0.008166
Mean fraction #NGS counts wt peptide / total counts selection ([4]; mean over selections 1-3): 0.0186
Mean fraction #NGS counts wt peptide / total counts selection [5]: 0.0004495

TMFLRETSL [GUCY1A2]
Phosphorylated selection Mean fraction [6]: 0.5527
Unphosphorylated selection Mean fraction [6]: 0.1808

TMFLRETSL‐coo‐
proportion of NGS counts, pre‐phosphorylated library relative to unphosphorylated library (fold) ([6]; phage-displayed peptide, library treated with RPS6KA1, selection against Scribble PDZ1, n = 2): 3 ×

TNSSSYEHI
Mean fraction #NGS counts mimetic peptide / total count selection [7]: 0

TNSSSYSHI
Mean fraction #NGS counts wt peptide / total counts selection [7]: 0.001855

VVHTPETEV
Mean fraction #NGS counts mimetic peptide / total count selection [2]: 5.021e-5
Mean fraction #NGS counts mimetic peptide / total count selection ([3]; mean over selections): 0.0009495
Mean fraction #NGS counts mimetic peptide / total count selection ([4]; mean of selections 1-3, phosphomimetic peptide): 1.817e-5
Mean fraction #NGS counts mimetic peptide / total count selection [5]: 0.0004495

VWLRKETRV [CYSLTR2]
Phosphorylated selection Mean fraction [6]: 7.3245e-6
Unphosphorylated selection Mean fraction [6]: 0

YEPSMEMSV
Mean fraction #NGS counts mimetic peptide / total count selection [7]: 0.001067

YPGSPDSWV
Mean fraction #NGS counts wt peptide / total counts selection [2]: 0.0005284
Mean fraction #NGS counts wt peptide / total counts selection [3, 8]: 0.2284
Mean fraction #NGS counts wt peptide / total counts selection [5]: 3.476e-5

YSPSMTMSV
Mean fraction #NGS counts wt peptide / total counts selection [7]: 7.133e-5
